Results published in patent US20030119728A1, “Stable, nasally, orally or sublingually applicable pharmaceutical preparation” (priority 2000, published 2003).

Test: Preliminary study of desmopressin preparations with various pH values, 6 weeks at 50° C. in glass flasks
Assay type: physicochemical
Settings: pH 1.0-7.0 tested, desmopressin content and sum of G1-G4
Experimental: Desmopressin preparations with various pH values (1.0, 2.0, 3.0, 4.0, 5.0, 6.0, and 7.0) were investigated for these preliminary studies. These solutions were stored in glass flasks for 6 weeks at 50° C. and then analysed in the usual way with the use of analytical columns. After 6 weeks the pH values of the seven solutions were unchanged.

NC(=O)CC[C@@H]1NC(=O)[C@H](Cc2ccccc2)NC(=O)[C@H](Cc2ccc(O)cc2)NC(=O)CCSSC[C@@H](C(=O)N2CCC[C@H]2C(=O)N[C@H](CCCN=C(N)N)C(=O)NCC(N)=O)NC(=O)[C@H](CC(N)=O)NC1=O [desmopressin, 1-deamino-8-D-arginine-vasopressin]
pH region in which desmopressin is most stable: ~5.0
